The values that follow come from ChEMBL document CHEMBL3745619, “Preparation and optimization of pyrazolo[1,5-a]pyrimidines as new potent PDE4 inhibitors” (Bioorg Med Chem Lett, 2016).

A value given as a limit tells only on which side of the number the result lay.

Assay [1] addresses T1, Phosphodiesterase 4 (Homo sapiens, UniProt P27815+Q08499+Q07343+Q08493). As to the kind of experiment: Inhibition of PDE4 in human SHSY-5Y cells assessed as suppression of cAMP hydrolysis by HTRF assay in presence of dye d2 labelled cAMP. Format: cell-based. The settings on record: sh-sy5y. (In TR-FRET formats the signal depends on donor and acceptor labels being close together.)

Assay [2] has as its target 3',5'-cyclic-AMP phosphodiesterase 4B (Homo sapiens, UniProt Q07343). As to the kind of experiment: Inhibition of human recombinant PDE4B1 expressed in insect Sf9 cells by fluorescence capillary-electrophoresis assay.
Assay [3] deals with T1, Phosphodiesterase 4. As to the kind of experiment: Inhibition of PDE4 in human SHSY-5Y cells assessed as suppression of cAMP hydrolysis at 10 uM by HTRF assay in presence of dye d2 labelled cAMP. The settings on record: SH-SY5Y. Format: cell-based.
Assay [4] concerns the target cGMP-inhibited 3',5'-cyclic phosphodiesterase 3A (Homo sapiens, UniProt Q14432). As to the kind of experiment: Inhibition of human recombinant PDE3 by fluorescence capillary-electrophoresis assay.

Chain of 3',5'-cyclic-AMP phosphodiesterase 4B (Q07343 whole entry): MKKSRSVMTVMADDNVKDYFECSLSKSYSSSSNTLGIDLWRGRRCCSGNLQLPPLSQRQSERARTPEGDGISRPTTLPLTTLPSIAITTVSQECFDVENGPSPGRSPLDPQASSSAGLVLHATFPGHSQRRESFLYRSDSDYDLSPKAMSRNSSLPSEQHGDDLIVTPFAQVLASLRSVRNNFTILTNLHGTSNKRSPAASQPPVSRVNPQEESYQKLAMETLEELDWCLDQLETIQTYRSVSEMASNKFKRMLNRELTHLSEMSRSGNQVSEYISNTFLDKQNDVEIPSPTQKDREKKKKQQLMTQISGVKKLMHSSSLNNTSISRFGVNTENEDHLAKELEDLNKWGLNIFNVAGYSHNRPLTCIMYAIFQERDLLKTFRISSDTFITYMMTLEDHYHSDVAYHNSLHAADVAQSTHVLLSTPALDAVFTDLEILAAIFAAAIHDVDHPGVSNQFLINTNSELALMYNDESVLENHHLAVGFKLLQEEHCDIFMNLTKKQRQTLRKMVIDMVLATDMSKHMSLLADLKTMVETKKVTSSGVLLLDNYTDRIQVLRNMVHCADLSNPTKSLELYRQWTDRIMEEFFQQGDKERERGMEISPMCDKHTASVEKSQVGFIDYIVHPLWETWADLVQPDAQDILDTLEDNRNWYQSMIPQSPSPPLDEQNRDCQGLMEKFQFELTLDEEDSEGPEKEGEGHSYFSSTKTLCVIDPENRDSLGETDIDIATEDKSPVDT
Chain of cGMP-inhibited 3',5'-cyclic phosphodiesterase 3A (Q14432 whole entry): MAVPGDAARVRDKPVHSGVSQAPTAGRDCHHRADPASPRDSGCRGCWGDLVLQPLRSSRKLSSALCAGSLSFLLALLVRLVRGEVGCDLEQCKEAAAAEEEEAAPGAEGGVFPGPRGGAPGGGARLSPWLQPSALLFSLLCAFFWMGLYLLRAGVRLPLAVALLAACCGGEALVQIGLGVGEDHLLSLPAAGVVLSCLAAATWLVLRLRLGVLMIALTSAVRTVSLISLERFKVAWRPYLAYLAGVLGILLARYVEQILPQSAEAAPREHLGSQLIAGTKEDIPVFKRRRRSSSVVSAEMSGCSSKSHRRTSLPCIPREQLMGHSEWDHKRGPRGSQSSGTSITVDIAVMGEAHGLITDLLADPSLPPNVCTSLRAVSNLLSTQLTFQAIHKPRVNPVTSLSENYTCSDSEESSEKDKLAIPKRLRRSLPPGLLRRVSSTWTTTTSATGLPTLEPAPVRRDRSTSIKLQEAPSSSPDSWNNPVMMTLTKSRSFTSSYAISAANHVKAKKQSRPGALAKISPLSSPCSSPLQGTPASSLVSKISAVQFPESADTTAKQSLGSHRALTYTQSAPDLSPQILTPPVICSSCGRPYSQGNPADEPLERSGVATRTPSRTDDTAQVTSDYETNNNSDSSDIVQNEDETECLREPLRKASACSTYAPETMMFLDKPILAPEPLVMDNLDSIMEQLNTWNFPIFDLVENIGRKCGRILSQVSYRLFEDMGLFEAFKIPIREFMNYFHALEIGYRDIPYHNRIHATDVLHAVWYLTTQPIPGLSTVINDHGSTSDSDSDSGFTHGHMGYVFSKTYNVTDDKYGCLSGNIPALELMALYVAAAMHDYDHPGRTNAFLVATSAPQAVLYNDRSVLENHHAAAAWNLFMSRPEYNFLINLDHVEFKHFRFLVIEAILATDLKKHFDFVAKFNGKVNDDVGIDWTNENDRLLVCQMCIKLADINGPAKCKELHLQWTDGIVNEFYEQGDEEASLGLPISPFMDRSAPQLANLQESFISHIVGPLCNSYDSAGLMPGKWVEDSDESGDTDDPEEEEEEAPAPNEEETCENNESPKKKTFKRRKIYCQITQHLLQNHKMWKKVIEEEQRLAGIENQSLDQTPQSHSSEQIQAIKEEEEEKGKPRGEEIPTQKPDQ

What is called IC50 is the concentration that gives 50% inhibition. Take `COc1cccc(Nc2c(C(N)=O)cnc3c(C)c(S(=O)(=O)c4ccccc4)nn23)c1`: the figures for the half-maximal inhibitory concentration (IC50) (at Phosphodiesterase 4 [1]; in assay [2]) were 243 nM and 4 nM, respectively.

`CC(C)c1c(S(C)(=O)=O)nn2c(Nc3cc(Cl)cc(Cl)c3)c(C(N)=O)cnc12`: the figures for the concentration for half-maximal inhibition (IC50) (on Phosphodiesterase 4 [1]; in assay [2]) were 507 nM and 6 nM, respectively.

On to `Cc1c(S(C)(=O)=O)nn2c(Nc3cc(Cl)cc(Cl)c3)c3c(nc12)CCNC3=O`, for which the IC50 came out at 5 nM at Phosphodiesterase 4 [1] and 0.03 nM in assay [2].

In the case of `CSc1nn2c(Nc3cc(Cl)cc(Cl)c3)c3c(nc2c1C)CCNC3=O`, the figures for the IC50 (on Phosphodiesterase 4 [1]; in assay [2]) were 480 nM and 0.2 nM, respectively.

As to `COc1cccc(Nc2c(C(N)=O)cnc3c(C(C)C)c(S(C)(=O)=O)nn23)c1`, the concentration for half-maximal inhibition (IC50) on Phosphodiesterase 4 [1] turned out to be 270 nM; in assay [2] it was 5 nM.

Turning to `Cc1cnn2c(Nc3ccccc3)c(C(N)=O)cnc12`, the 50% inhibitory concentration (IC50) was over 10000 nM on Phosphodiesterase 4 [1] and 1950 nM in assay [2].

With `CNC(=O)c1cnc2c(C)cnn2c1Nc1cccc(OC)c1`, the IC50 (on Phosphodiesterase 4 [1]; in assay [2]) was over 10000 nM in each case.

`Cc1c(S(=O)(=O)c2ccccc2)nn2c(Nc3cc(Cl)cc(Cl)c3)c(C(N)=O)cnc12`: the figures for the IC50 (on Phosphodiesterase 4 [1]; in assay [2]) were 5600 nM and 7 nM, respectively.

With `COc1cccc(Nc2c(C(N)=O)cnc3c(C)c(S(C)(=O)=O)nn23)c1`, the half-inhibitory concentration (IC50) at Phosphodiesterase 4 [1] came out at 1820 nM; in assay [2] it was 26 nM.

On to `CCc1cnn2c(Nc3cccc(OC)c3)c(C(N)=O)cnc12`, for which the values for the IC50 (at Phosphodiesterase 4 [1]; in assay [2]) were 5400 nM and 38 nM, respectively.

As for `Cc1c(S(=O)(=O)c2cccc(C(=O)N(C)C)c2)nn2c(Nc3cc(Cl)cc(Cl)c3)c(C(N)=O)cnc12`, the IC50 was found to be 130 nM at Phosphodiesterase 4 [1] and 0.2 nM in assay [2].

In general, inhibition refers to the drop in the measured response relative to a control, in per cent. Regarding `COc1cccc(Nc2c(C(N)=O)cnc3c(C)cnn23)c1`, on Phosphodiesterase 4 [3], the inhibition was under 50%. For the same molecule, the IC50 was over 10000 nM at Phosphodiesterase 4 [1], over 10000 nM in assay [4] and 165 nM in assay [2].

With `Cc1cnn2c(Nc3cc(Cl)cc(Cl)c3)c(C(N)=O)cnc12`, the IC50 at Phosphodiesterase 4 [1] is over 10000 nM; in assay [2] it was 16 nM.

For `Cc1c(S(C)(=O)=O)nn2c(Nc3cc(Cl)cc(Cl)c3)c(C(N)=O)cnc12`, the figures for the IC50 (on Phosphodiesterase 4 [1]; in assay [2]) were 1500 nM and 7 nM, respectively.

For `COc1cccc(Nc2c3c(nc4c(C)c(S(C)(=O)=O)nn24)CCNC3=O)c1`, the IC50 was determined as 8 nM at Phosphodiesterase 4 [1] and 0.1 nM in assay [2].

For the molecule `COc1cccc(Nc2c(C(N)=O)cnc3c(C)c(S(=O)(=O)c4cccc(C(=O)N(C)C)c4)nn23)c1`, the IC50 amounted to 629 nM at Phosphodiesterase 4 [1] and 0.7 nM in assay [2].
